In US9266857B2, “Bicyclic AZA compounds as muscarinic M1 receptor agonists” (Heptares Therapeutics Limited, priority 2012, dated 2016):
Read-outs that look alike come from different tables or passages of the source.

Legend:
Format in all cases: cell-based
[1] = biological target: T1, human muscarinic M4 receptor (Homo sapiens, UniProt P08173); test: Alphascreen Surefire phospho-ERK1/2 functional assay, M4; conditions: for EC50: phospho-ERK1/2, read-out: pEC50 M4 (converted); for Emax: CHO
T1 construct: expressed in transfected cells
T1 sequence (P08173 1-479): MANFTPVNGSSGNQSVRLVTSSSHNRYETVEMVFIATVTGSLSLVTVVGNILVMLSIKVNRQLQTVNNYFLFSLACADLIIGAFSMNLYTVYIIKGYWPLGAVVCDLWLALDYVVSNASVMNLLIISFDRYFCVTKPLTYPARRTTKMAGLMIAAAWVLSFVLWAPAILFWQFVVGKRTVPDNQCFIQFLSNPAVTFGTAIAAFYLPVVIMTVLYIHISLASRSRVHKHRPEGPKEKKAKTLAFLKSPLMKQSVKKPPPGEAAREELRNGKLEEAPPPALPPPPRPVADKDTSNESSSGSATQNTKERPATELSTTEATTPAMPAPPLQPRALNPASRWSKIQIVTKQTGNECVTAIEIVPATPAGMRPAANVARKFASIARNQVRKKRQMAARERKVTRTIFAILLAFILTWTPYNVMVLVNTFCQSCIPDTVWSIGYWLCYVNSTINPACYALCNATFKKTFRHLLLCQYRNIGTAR
Protocol: (§1) ERK1/2 phosphorylation is a downstream consequence of both Gq/11 and Gi/o protein coupled receptor activation, making it highly suitable for the assessment of M1, M3 (Gq/11 coupled) and M2, M4 receptors (Gi/o coupled), rather than using different assay formats for different receptor subtypes. CHO cells stably expressing the human muscarinic M1, M2, M3 or M4 receptor were plated (25K/well) onto 96-well tissue culture plates in MEM-alpha+10% dialysed FBS. Once adhered, cells were serum-starved overnight. Agonist stimulation was performed by the addition of 5 μL agonist to the cells for 5 min (37° C.). Media was removed and 50 μL of lysis buffer added. After 15 min, a 4 μL sample was transferred to 384-well plate and 7 μL of detection mixture added. Plates were incubated for 2 h with gentle agitation in the dark and then read on a PHERAstar plate reader.
(§2) pEC50 and Emax figures were calculated from the resulting data for each receptor subtype.

[2] = biological target: T2, human muscarinic M2 receptor (Homo sapiens, UniProt P08172); test: Alphascreen Surefire phospho-ERK1/2 functional assay, M2; conditions: for EC50: CHO cells stably expressing human M2, phospho-ERK1/2, read-out: pEC50 M2 (converted); for Emax: CHO, read-out: % Emax cf. ACh, M2
T2 construct: expressed in transfected cells
T2 sequence (P08172 1-466): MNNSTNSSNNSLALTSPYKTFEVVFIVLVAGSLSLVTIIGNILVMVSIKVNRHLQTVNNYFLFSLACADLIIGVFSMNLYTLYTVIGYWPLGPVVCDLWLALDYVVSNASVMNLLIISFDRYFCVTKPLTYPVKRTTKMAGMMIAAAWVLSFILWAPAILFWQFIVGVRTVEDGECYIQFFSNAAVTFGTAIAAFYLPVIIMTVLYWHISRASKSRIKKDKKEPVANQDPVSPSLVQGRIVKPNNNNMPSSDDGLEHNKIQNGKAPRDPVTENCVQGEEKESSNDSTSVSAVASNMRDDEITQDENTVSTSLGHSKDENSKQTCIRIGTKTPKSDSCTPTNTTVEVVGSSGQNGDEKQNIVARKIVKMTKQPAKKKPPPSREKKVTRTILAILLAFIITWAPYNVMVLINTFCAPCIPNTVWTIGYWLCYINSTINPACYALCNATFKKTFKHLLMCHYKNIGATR
Protocol: as §1, §2

[3] = biological target: T3, human muscarinic M3 receptor (Homo sapiens, UniProt P20309); test: Alphascreen Surefire phospho-ERK1/2 functional assay, M3; conditions: for EC50: CHO cells stably expressing human M3, phospho-ERK1/2, read-out: pEC50 M3 (converted); for Emax: CHO, read-out: % Emax cf. ACh, M3
T3 construct: expressed in transfected cells
T3 sequence (P20309 whole entry): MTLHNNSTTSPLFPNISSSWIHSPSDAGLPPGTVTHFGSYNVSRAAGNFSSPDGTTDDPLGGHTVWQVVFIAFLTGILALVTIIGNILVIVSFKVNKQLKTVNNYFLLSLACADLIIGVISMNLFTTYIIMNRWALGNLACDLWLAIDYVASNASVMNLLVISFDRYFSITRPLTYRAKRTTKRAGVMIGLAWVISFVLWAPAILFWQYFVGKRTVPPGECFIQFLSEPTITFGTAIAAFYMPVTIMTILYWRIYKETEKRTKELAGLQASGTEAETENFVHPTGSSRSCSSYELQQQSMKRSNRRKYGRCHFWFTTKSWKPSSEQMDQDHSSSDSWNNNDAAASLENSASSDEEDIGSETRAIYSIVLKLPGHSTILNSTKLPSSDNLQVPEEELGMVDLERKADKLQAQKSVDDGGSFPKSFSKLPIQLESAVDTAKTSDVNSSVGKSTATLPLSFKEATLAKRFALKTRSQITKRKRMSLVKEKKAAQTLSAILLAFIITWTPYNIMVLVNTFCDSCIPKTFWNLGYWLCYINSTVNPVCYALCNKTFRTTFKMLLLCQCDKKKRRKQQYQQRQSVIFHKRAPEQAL
Protocol: as §1, §2

[4] = biological target: T4, human muscarinic M1 receptor (Homo sapiens, UniProt P11229); test: Alphascreen Surefire phospho-ERK1/2 functional assay, M1; conditions: for EC50: CHO cells stably expressing human M1, phospho-ERK1/2, read-out: pEC50 M1 (converted); for Emax: CHO
T4 construct: expressed in transfected cells
T4 sequence (P11229 1-460): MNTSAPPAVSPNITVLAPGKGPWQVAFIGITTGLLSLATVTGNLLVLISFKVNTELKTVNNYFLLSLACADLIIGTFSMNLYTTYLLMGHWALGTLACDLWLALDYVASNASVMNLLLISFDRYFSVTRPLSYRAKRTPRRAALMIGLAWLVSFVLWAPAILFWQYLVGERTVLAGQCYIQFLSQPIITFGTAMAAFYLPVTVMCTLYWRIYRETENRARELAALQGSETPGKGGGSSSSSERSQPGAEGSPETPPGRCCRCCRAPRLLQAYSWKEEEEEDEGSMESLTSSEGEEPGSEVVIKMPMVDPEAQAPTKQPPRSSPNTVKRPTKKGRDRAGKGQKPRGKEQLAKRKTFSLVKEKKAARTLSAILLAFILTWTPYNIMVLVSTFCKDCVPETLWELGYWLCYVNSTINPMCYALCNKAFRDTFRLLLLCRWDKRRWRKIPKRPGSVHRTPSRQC
Protocol: as §1, §2

[5] = CHO cells stably expressing human M4
[6] = read-out: % Emax cf. ACh, M1, CHO cells stably expressing human M1, relative to ACh

| SMILES | EC50 [1, 5] | Emax ([1]; read-out: % Emax cf. ACh, M4) | EC50 [2] | Emax [2] | EC50 [3] | Emax [3] | EC50 [4] | Emax ([4]; read-out: % Emax cf. ACh, M1) | Emax ([1]; read-out: % Emax cf. ACh, M4, CHO cells stably expressing human M4, relative to ACh) | Emax [4, 6] | % Emax cf. ACh, M4 ([1]; CHO cells stably expressing human M4, relative to ACh, listed as 1 - Isomer 1) |
| --- | --- | --- | --- | --- | --- | --- | --- | --- | --- | --- | --- |
| C#CCOC(=O)N1CC2(CCC(N3CCC(C(=O)NC4(C)CCC4)CC3)C2)C1 (racemic) [Example 13 - racemic, prop-2-yn-1-yl 6-{4-[(1-methylcyclobutyl)carbamoyl]piperidin-1-yl}-2-azaspiro[3.4]octane-2-carboxylate] | 0.0525 µM | 44% | > 20 µM | 7% | > 20 µM | 39% | 0.0158 µM | 139% |  |  |  |
| CCOC(=O)N1C2CCC1CC(N1CCC(F)(C(=O)NC3(C)CCC3)CC1)C2 (single isomer, unassigned) [Example 4 - Isomer 2, ethyl 3-{4-fluoro-4-[(1-methylcyclobutyl)carbamoyl]piperidin-1-yl}-8-azabicyclo[3.2.1]octane-8-carboxylate] | 1.07 µM |  |  |  |  |  | 0.145 µM |  | 44% | 111% |  |
| CCOC(=O)N1CCC2(CC(N3CCC(C(=O)NC4(C)CCC4)CC3)C2)C1 (single isomer, unassigned) [Example 9 - Isomer 1, ethyl 2-{4-[(1-methylcyclobutyl)carbamoyl]piperidin-1-yl}-6-azaspiro[3.4]octane-6-carboxylate] | 0.589 µM | 67% |  |  |  |  | 0.302 µM | 102% |  |  |  |
| CCOC(=O)N1CC2CC(N3CCC(C(=O)NC4(C)CCC4)CC3)CC2C1 (mixture of isomers) [Example 8 - mixture of diastereomers, ethyl 5-{4-[(1-methylcyclobutyl)carbamoyl]piperidin-1-yl}hexahydrocyclopenta[c]pyrrole-2(1H)-carboxylate] | 1.7 µM | 29% | > 20 µM | 5% | > 20 µM | 8% | 0.11 µM | 118% |  |  |  |
| CCOC(=O)N1CCC2(CC(N3CCC(C(=O)NC(C)(C)CC)CC3)C2)C1 (mixture of isomers) [Example 16 - mixture of diastereomers, ethyl 2-{4-[(2-methylbutan-2-yl)carbamoyl]piperidin-1-yl}-6-azaspiro[3.4]octane-6-carboxylate] | 0.646 µM | 56% |  |  |  |  | 0.309 µM | 113% |  |  |  |
| CCOC(=O)N1CCC2(CC(N3CCC(C(=O)NCC4CCC4)CC3)C2)C1 (mixture of isomers) [Example 19 - mixture of diastereomers, ethyl 2-{4-[(cyclobutylmethyl)carbamoyl]piperidin-1-yl}-6-azaspiro[3.4]octane-6-carboxylate] | 1.02 µM | 42% |  |  |  |  | 0.363 µM | 109% |  |  |  |
| CCOC(=O)N1C2CCC1CC(N1CCC(C(=O)NC3(C)CCC3)CC1)C2 (single isomer, unassigned) [Example 1 - Isomer 1, ethyl 3-{4-[(1-methylcyclobutyl)carbamoyl]piperidin-1-yl}-8-azabicyclo[3.2.1]octane-8-carboxylate] | 1.02 µM |  |  |  |  |  | 0.324 µM |  |  | 99% | 51% |

Now from value to compound, other results behind:

| EC50 [1, 5] | Emax ([1]; read-out: % Emax cf. ACh, M4) | EC50 [2] | Emax [2] | EC50 [3] | Emax [3] | EC50 [4] | Emax ([4]; read-out: % Emax cf. ACh, M1) | SMILES | Emax ([1]; read-out: % Emax cf. ACh, M4, CHO cells stably expressing human M4, relative to ACh) | Emax [4, 6] | % Emax cf. ACh, M4 ([1]; CHO cells stably expressing human M4, relative to ACh, listed as 1 - Isomer 1) |
| --- | --- | --- | --- | --- | --- | --- | --- | --- | --- | --- | --- |
| 0.195 µM | 111% |  |  |  |  | 0.0851 µM | 105% | [2H]C([2H])([2H])C1(NC(=O)C2CCN(C3CC4(CCN(C(=O)OC([2H])([2H])C([2H])([2H])[2H])C4)C3)CC2)CCC1 (single isomer, unassigned) [Example 30 - Isomer 2, (1,1,2,2,2-pentadeutero)ethyl 2-(4-{[1-(1,1,1-trideuteromethyl)cyclobutyl]carbamoyl}piperidin-1-yl)-6-azaspiro[3.4]octane-6-carboxylate] |  |  |  |
| 0.257 µM | 110% |  |  |  |  | 0.0813 µM | 108% | [2H]C([2H])([2H])COC(=O)N1CCC2(CC(N3CCC(C(=O)NC4(C([2H])([2H])[2H])CCC4)CC3)C2)C1 (single isomer, unassigned) [Example 26 - Isomer 2, (2,2,2-trideutero)ethyl 2-(4-{[1-(1,1,1-trideuteromethyl)cyclobutyl]carbamoyl}piperidin-1-yl)-6-azaspiro[3.4]octane-6-carboxylate] |  |  |  |
| 0.186 µM | 91% | > 20 µM | 18% | > 20 µM | 13% | 0.055 µM | 107% | [2H]C([2H])([2H])C([2H])([2H])OC(=O)N1CCC2(CC(N3CCC(C(=O)NC4(C)CCC4)CC3)C2)C1 (single isomer, unassigned) [Example 29 - Isomer 2, (1,1,2,2,2-pentadeutero)ethyl 2-{4-[(1-methylcyclobutyl)carbamoyl]piperidin-1-yl}-6-azaspiro[3.4]octane-6-carboxylate] |  |  |  |
| 0.309 µM | 106% |  |  |  |  | 0.324 µM | 120% | [2H]C([2H])([2H])COC(=O)N1CCC2(CC(N3CCC(C(=O)NC4(CF)CCC4)CC3)C2)C1 (single isomer, unassigned) [Example 28 - Isomer 2, (2,2,2-trideutero)ethyl 2-(4-{[1-(fluoromethyl)cyclobutyl]carbamoyl}piperidin-1-yl)-6-azaspiro[3.4]octane-6-carboxylate] |  |  |  |
| 0.209 µM | 67% |  |  |  |  | 0.0794 µM | 103% | [2H]C([2H])([2H])C1(NC(=O)C2CCN(C3CC4(CCN(C(=O)OCC)C4)C3)CC2)C([2H])([2H])C([2H])([2H])C1([2H])[2H] (single isomer, unassigned) [Example 22 - Isomer 2, ethyl 2-(4-{[1-(1,1,1-trideuteromethyl)-2,2,3,3,4,4-hexadeuterocyclobutyl]carbamoyl}piperidin-1-yl)-6-azaspiro[3.4]octane-6-carboxylate] |  |  |  |
| 0.646 µM | 77% |  |  |  |  | 0.407 µM | 110% | [2H]C([2H])([2H])C([2H])([2H])OC(=O)N1CCC2(CC(N3CCC(C(=O)NC4(C([2H])([2H])[2H])C([2H])([2H])C([2H])([2H])C4([2H])[2H])CC3)C2)C1 (mixture of isomers) [Example 31 - mixture of diastereomers, (1,1,2,2,2-pentadeutero)ethyl 2-(4-{[1-(1,1,1-trideuteromethyl)-2,2,3,3,4,4-hexadeuterocyclobutyl]carbamoyl}piperidin-1-yl)-6-azaspiro[3.4]octane-6-carboxylate] |  |  |  |
| 0.219 µM | 67% |  |  |  |  | 0.155 µM | 90% | CCOC(=O)N1CCC2(CC(N3CCC(C(=O)NC4(CF)CCC4)CC3)C2)C1 (single isomer, unassigned) [Example 23 - Isomer 2, ethyl 2-(4-{[1-(fluoromethyl)cyclobutyl]carbamoyl}piperidin-1-yl)-6-azaspiro[3.4]octane-6-carboxylate] |  |  |  |
